Data as given in patent publication US4200748A, “Pyrido[1',2':4,5][1,4]oxazino[2,3-b]quinoxalines and pyrrolo[1',2':4,5][1,4]oxazino[2,3-b]quinoxalines” (American Cyanamid Company, priority 1979, dated 1980).
pIC50: −log10 of the molar value.

System: brain receptors (3H-diazepam binding)
Experiment: Inhibition of the binding of 3H-diazepam to the brain receptors (rat frontal cortex P2-synaptosomal fraction)
Parameters: species or system male albino rats of the Wistar strain
Settings: 3H-diazepam 1.5 nM, pH 7.4, 20 minutes in ice; for % Inhibition of Diazepam Binding: test concentration not given; for pIC50: inhibition of 3H-diazepam binding
Description: A test used to measure anxiolytic activity comprises measurement of the ability of test compounds to inhibit the binding of ^3 H-diazepam to the brain receptors of warm-blooded animals. The test is described by R. F. Squires in Nature, 266, No. 21, page 732 (April 1977). The animals used were male albino rats of the Wistar strain, weighing 150-200 g. each from Royalhart Farms. Diazepam (methyl-^3 H) was obtained from New England Nuclear. The test compounds were solubilized in either dimethylformamide, acetic acid, ethanol or hydrochloric acid. The frontal cortex of rats was homogenized gently in 20 volumes of ice-cold 0.32 M. sucrose, centrifuged twice at 1000 g. for 10 minutes and then recentrifuged at 30,000 g. for 20 minutes to produce a crude P2 -synaptosomal fraction. The P2 -fraction was rehomogenised, twice the original volume, in hypotonic 50 mM. Tris.HCl (pH 7.4). The binding assay consisted of 300 .parallel.l. of the P2 -fraction suspension (0.350 mg.), 100 .parallel.l. of test drug and 100 μl. of ^3 H-diazepam (1.5 nM.), which was added to 1.5 ml. of 50 mM. Tris.HCl (pH 7.4). Non-specific binding controls and total binding controls received 100 μl. of diazepam (3 μm.) and 100 μl. of deionized water, respectively, in place of the test compound. Incubation for 20 minutes proceeded in ice and was terminated by filtration, under vacuum, through Whatman GF/C glass fiber filters. The filters were washed twice with 5 ml. of ice-cold 50 mM. Tris.HCl (pH 7.4) and placed in scintillation vials. After drying at 50°-60° C. for 30 minutes, 10 ml. of Beckman Ready-Solve HP was added and the radioactivity determined in a Beckman Scintillation Counter.

## FC(F)(F)c1ccc2nc3c(nc2c1)OCC1CCCCN31 (stereo not shown) [1,2,3,4,4a,5-Hexahydro-9-trifluoromethylpyrido[1',2':4,5][1,4]oxazino[2,3-b]quinoxaline]
  % Inhibition of Diazepam Binding: 90%
  pIC50: 6.45

## Clc1ccc2nc3c(nc2c1)OCC1CCCCN31 (stereo not shown) [9-Chloro-1,2,3,4,4a,5-hexahydropyrido[1',2':4,5][1,4]oxazino[2,3-b]quinoxaline]
  % Inhibition of Diazepam Binding: 97%
  pIC50: 7.85

## Nc1ccc2nc3c(nc2c1)OCC1CCCCN31 (stereo not shown) [9-Amino-1,2,3,4,4a,5-hexahydropyrido[1',2':4,5][1,4]oxazino[2,3-b]quinoxaline]
  % Inhibition of Diazepam Binding: 93%
  pIC50: 7.41

## c1ccc2nc3c(nc2c1)OCC1CCCN31 (single isomer, unassigned) [2,3,3a,4-Tetrahydro-1H-pyrrolo[1',2':4,5][1,4]oxazino[2,3-b]quinoxaline]
  % Inhibition of Diazepam Binding: 87%
  pIC50: 7.06

## Nc1cccc2nc3c(nc12)N1CCCCC1CO3 (stereo not shown) [11-Amino-1,2,3,4,4a,5-hexahydropyrido[1',2':4,5][1,4]oxazino[2,3-b]quinoxaline]
  % Inhibition of Diazepam Binding: 98%
  pIC50: 7.70

## CN(C)C=Nc1cccc2nc3c(nc12)N1CCCCC1CO3 (stereo not shown) [N'-(1,2,3,4,4a,5-hexahydropyrido[1',2':4,5][1,4]oxazino[2,3-b]quinoxalin-11-yl)-N,N-dimethylformamidine]
  % Inhibition of Diazepam Binding: 96%
  pIC50: 7.26

## O=[N+]([O-])c1cccc2nc3c(nc12)N1CCCCC1CO3 (stereo not shown) [1,2,3,4,4a,5-hexahydro-11-nitropyrido[1',2':4,5][1,4]oxazino[2,3-b]quinoxaline]
  % Inhibition of Diazepam Binding: 72%
  pIC50: 6.68

## Clc1ccc2nc3c(nc2c1)N1CCCCC1CO3 (stereo not shown) [10-chloro-1,2,3,4,4a,5-hexahydropyrido[1',2':4,5][1,4]oxazino[2,3-b]quinoxaline]
  % Inhibition of Diazepam Binding: 95%
  pIC50: 7.66
